Assay [1] concerns the target T1, kininogenase extracted and purified from human urine (original solution) (Homo sapiens, UniProt P06870).
T1 construct: from tissue; host or cells: human urine (pooled, healthy males)
Description: Enzymatic dynamic constants with lower molecule synthetic substrates. Type of assay: biochemical. The note with it: synthetic substrate. The source says: In the next place, An ability of the kininogenase for making free the kinin was periodically checked by using canine lower molecule kininogen, human lower molecule kininogen and human higher molecule kininogen in various concentration, as substrates to calculate enzymatic dynamic constants of the kininogenase.
An activity of the kininogenase to decomposition of lower molecule synthetic substrates was checked as in said Item (A) to calculate enzymatic dynamic constants of the kininogenase.

In assay [2] the test system is model animal with hypoxia. Description: Influence to model animal with hypoxia (5% O2 breathing). Type of assay: in vivo, New Zealand white rabbits. On the procedure:
Each of female New Zealand white rabbits (body weight of about 3kg) were anethetized with pentbarbital-Na, and a tube was inserted, at once, into their trachea to cause an adjusted breathing with air through a respirator.
After intravenously injecting 0.5mg/kg of tubocurarine chloride to cause an amyotonia, the animal was transferred to a fixing device to cause an orientation of her brain to peel bellies along a median line in its vertex and to form two apertures or windows of 0.5 x 0.5cm at right front portion and 1.0 x 0.5cm at right rear portion of the skull. To the front window, a silver ball electrode was set to measure brain-wave in the cortex, and a local blood flow in the cortex and P02 in brain were measured by utilizing the rear window. Number of heat beats was measured by making trigger R-wave of the […]. These parameters were recorded by feeding the same to a polygraph, crossed thermocouple and recticorder.
After stabilized of each parameters, the air from the respirator was changed to 5% 02 and at once, drugs given later was intravenously injected to continue the experiment for 10 minutes.
• (A) Control group (n = 3) : • Administrated 3.3ml of phosphate buffer (0.05M, pH 7) for 30 minutes at rate of 0.11 ml/min. • (B) 5.0 x 10-^3 PNA units/kg Administration group (n = 3) : • Administrated 3.3ml of solution for 30 minutes at rate of 0.11 ml/min., which solution was prepared by diluting a kininogenase solution of 5.0 x 10-^2 PNA units/ml with phosphate buffer (0.05M, pH 7) by 10 folds. • (C) 2.5 x 10-^3 PNA units/kg Administration group (n = 3) : • Administrated 3.3ml of solution for 30 minutes at rate of 0.11 ml/min., which solution was prepared by diluting a kininogenase solution of 2.5 x 10-^2 PNA units/ml with phosphate buffer (0.05M, pH 7) by 10 folds. • (D) 1.5 x 10-^3 PNA units/kg Administration group (n = 3) : • Administrated 3.3ml of solution for 30 minutes at rate of 0.11 ml/min., which solution was prepared by diluting a kininogenase solution of 1.5 x 10-^2 PNA units/ml with phosphate buffer (0.05M, pH 7) by 10 folds. • (E) Citicholine (100mg/kg) administration group (n = 3) : • Administrated 3.3ml of a solution for 30 minutes at rate of 0.11 ml/min., which solution was prepared by taking 4ml of Nicholine injection solution (250mg/2ml), and diluting the same with phosphate buffer (0.05M, pH 7) to make the drug concentration to 100mg/kg. • (F) Citicholine (10mg/kg) administration group (n = 3) : • Administrated 3.3ml of a solution for 30 minutes at rate of 0.11 ml/min., which solution was prepared by taking 2ml of Nicholine injection solution (100mg/2ml), and diluting the same with phosphate buffer (0.05M, pH 7) to make the drug concentration to 10mg/kg. • (G) Nicardipine (4a g/kg) administration group (n = 3) : • Taking 10mg of Nicardipine, and diluting the same with saline to make the drug concentration to 4µ g/kg to administrate 0.1 ml/kg for 20 seconds.
A ratio of change was calculated on the number of heart beats, and an amount of change was calculated on the P02 in brain and local blood flow in brain. The brain-wave was analyzed with an analyzer (Type ATAC-450 marketed by Japan Photoelectric Co., Ltd.) to print out results. A statistic inspection or examination was carried out with use of a program of FM 11 marketed by Fujitu Co., Ltd. and judged as there is a significant difference, when P value is 0.05 or less in Student's t-test.

Assay [3] relates to brain in ischemic state. Description: Cerebral ischemia by ligation of vertebral and common carotid arteries, then release. Type of assay: in vivo, rabbit. On the procedure:
Both of side vertebral arteries of a healthy rabbit were permanently ligated, both of the common carotid arteries were ligated for 40 minutes to make the brain in ischemic state, and then released the ligation of the common carotid arteries to observe a local blood flow and brain-wave in cerebral cortex portion and to measure concentrations of ATP and lactate in the cortex portion, at the time lapsed 15 minutes from the release of blood flow in the common carotid arteries. Following drugs were administrated in following manner. Citicholine : • Intravenously administrated for 30 minutes from 15 minutes before the ligation of common carotid arteries and at a dose of 100mg/kg. Nicardipine : • Rapidly administrated into an upper portion of small intestine at the time of 15 minutes before the ligation of common carotid arteries.

The subject of assay [4] is model animal destroyed in its internal capsule. Type of assay: in vivo, New Zealand white rabbit. The note with it: citicholine 100mg/kg i.v. for 30 minutes. The source says:
An influence of kininogenase to an improvement in an arousal reaction of brain wave in cerebral cortex was checked by selecting a rabbit as a test animal, electrically canterigating an internal capsule to prepare a model animal with symptoms similar to a person caused a cerebral hemorrhage, and administrating the drug, since the destruction of internal capsule gives a partial obstacle to an invigoration system in ascending rectacular region, which has been said as having a close relation with the arousal reaction of brain-wave in cortex.
A cannula was fitted in an auricle vein of a female New Zealand white rabbit to anethetize the animal by intravenously administrating pentbarbital-Na (30mg/kg). […] A concentration of PC02 in the artery blood was periodically measured by a blood gas analyzer to adjust the respirator, so that the concentration lies in a suitable level of 35 ± 5mmHg). […]
The brain-wave was monopolarly derived by the screw type electrode to record on a polygraph and also recorded on a magnetic tape by a data recorder. A cardiogram, blood pressure and number of heart beats were recorded on the polygraph through a secondary induction, a pressure transducer and a momentary heart beat recorder which subjects to cause a trigger the R wave for the cardiogram, respectively. […]
A voltage firstly appeared an arousal reaction, when a voltage for stimulating the rectacular regions shall be raised up with an interval of 5V, and a period of time during which the arousal reaction continues, when the rectacular regions are stimulated with voltage of 4V were defined as the "arousal reaction threshold value" and "arousal reaction sustaining time". The threshold value and sustaining time were visually judged from waves recorded on the charts and shown with units of voltage value (V) and time (sec.). […]

Assay [5] has as its system region occurred a cerebral infarction. The experiment in a line: Influence to region of cerebral infarction 24 hours after glass bead injection. Type of assay: in vivo, rabbit. The note with it: 100mg/kg, sustaining administration for 30 minutes. How it is done: With use of model animals as in Pharmacological Test Example 4, an influence of a drug to region occurred a cerebral infarction at the time after lapsed 24 hours from the injection of glass bead was checked.

Assay [6] deals with middle cerebral artery obstructive model animal. Description: Nerve dysfunction, cerebral circulation and brain wave in middle cerebral artery obstruction model. The class given is in vivo, Japanese monkey. The note with it: citicholine 10mg/kg intravenous infusion, 24 hours after obstruction. How it is done: A tube was fitted to left-outernal carotid artery of anesthetized Japanese monkey and a silicone resin pellet [1 mm (q) ) x 5mm] was inserted into the artery through the tube to prepare a middle cerebral artery obstructive model animal.
After lapsed 5 minutes from the obstruction of left middle cerebral artery, kininogenase (2.5 x 10-^2 PNA units/kg) or citicholine (10mg/kg) as a test and control drugs was administrated through an intravenous infusion.

In assay [7] the test system is model animal with cerebral infarction. Description: Cerebral circulation and metabolism in cerebral infarction model (micro-glass bead injection). The class given is in vivo, rabbit. On the procedure:
A micro-glass bead was injected into right hemicerebrum of an anethetized healthy rabbit to prepare a model animal with cerebral infarction. After administration of a drug, local blood flow (in cortex portion), micro-circulation in cerebral pia leptmeninges, distribution of cerebral blood flow and concentrations of P02, ATP, lactate, pyruvate, glucose and glucose-6-phosphate were measured. The measurement of biochemical substances was carried out after lapsed 60 minutes from the administration of the drug.
A change in diameter arterioles in cerebral pia leptmeninges was observed, as to blood vessels having diameters of >100, >50 to <100 and <50u m, under microscope and according to Cranial window method.

The mark [8] stands for this setting: 5% O2, citicholine 100mg/kg or 10mg/kg i.v., Nicardipine 4µ g/kg.

A word on the Km: it is the substrate concentration at which the rate is half of its maximum.

Where a name gives a salt, the structure may show the parent alone. Non-standard residues stand in square brackets, D forms with d. Residues, ends and D or L forms follow the SMILES beside them. *: point of attachment. pNA = O=[N+]([O-])c1ccc(N*)cc1; AMC = Cc1cc(=O)oc2cc(N*)ccc12

T1 sequence (P06870 25-262): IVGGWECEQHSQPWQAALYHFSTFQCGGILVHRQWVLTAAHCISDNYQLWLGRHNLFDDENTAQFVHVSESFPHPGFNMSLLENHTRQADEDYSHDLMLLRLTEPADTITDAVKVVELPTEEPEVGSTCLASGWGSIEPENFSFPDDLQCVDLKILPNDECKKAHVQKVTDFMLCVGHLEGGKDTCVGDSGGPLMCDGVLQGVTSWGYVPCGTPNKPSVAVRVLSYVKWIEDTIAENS

Regarding `CC(C)C[C@H](NC(=O)[C@H](N)C(C)C)C(=O)N[C@@H](CCCNC(=N)N)C(=O)Nc1ccc([N+](=O)[O-])cc1` [PNA, H-D-Val-L-Leu-L-Arg-p-nitroanilide dihydrochloride] (H-[dV]-Leu-Arg-pNA), in assay [1], the Km worked out at 8.95 µM and the Vmax was 7.8e-06 min⁻¹ mg⁻¹.

With `Cc1cc(=O)oc2cc(NC(=O)[C@H](CCCNC(=N)N)NC(=O)[C@H](Cc3ccccc3)NC(=O)[C@@H]3CCCN3)ccc12` [MCA, L-Pro-L-Phe-L-Arg-4-methyl-cumaryl-7-amide] (H-Pro-Phe-Arg-{AMC}), in assay [1], the Km came to 34 µM and the Vmax came out at 2.57e-05 min⁻¹ mg⁻¹.

`C[N+](C)(C)CCOP(=O)(O)OP(=O)([O-])OC[C@H]1O[C@@H](n2ccc(N)nc2=O)[C@H](O)[C@@H]1O` [Citicholine]: in assay [2] (setting [8]), the “Influence to P02 in cerebral cortex (suppression of decrease)” value is “no suppressing effect” and the “Influence to local blood flow in cerebral cortex (suppression of increase)” value was “no effect”. In assay [2] (5% O2, citicholine at dose of 100mg/kg), the “Influence to brain-wave in cortex portion” value was “low-amplitude and quick wave”. In addition, the “Influence to number of heart beats” value in assay [2] (versus control group, citicholine 100mg/kg or 10mg/kg i.v. for 30 minutes, Nicardipine 4µ g/kg for 20 seconds) is on record as “no significant difference”. Also, in assay [3] (citicholine 100mg/kg i.v. for 30 minutes, Nicardipine rapidly into upper small intestine, 15 minutes before ligation), the “local blood flow in cerebral cortex portion after release of blood flow” value is on record as “did not suppresses the blood flow increase”. In addition, the “reactivation of flattened brain-wave” value in assay [3] (citicholine 100mg/kg i.v., Nicardipine into upper small intestine) is reported as “not recognized”. Further, in assay [4] (reported as a tendency), the “frequency components of brain wave in cortex portion (quick wave components)” value is given as “reduction of quick wave components is suppressed”. Further, in assay [4] (versus control group), the “Sustaining period of time in the arousal reaction” value was “not recognized” and the “Threshold value of arousal reaction” value is recorded as “No apparent change”. Moreover, in assay [5] (24 hours after glass bead injection), the “Region of infarction (%)” value is 30.8 ± 19.8%. For the same compound, in assay [5] (versus control), the “Inhibition (%)” value is reported as -35.9%. Also, in assay [6], the “blood flow in cerebral cortex” value is reported as “no improvement” and the brain wave activities result is recorded as “no improvement”. In addition, the neuro symptoms entry in assay [6] (versus control group) is recorded as “improvement”. The “suppression of ATP decrease” value in assay [7] (60 minutes after administration of the drug) is on record as “did not show the suppress of ATP decrease”. Moreover, the “Blood flow in cerebral cortex portion at the ischemic side” value in assay [7] (Nicardipine 0.5mg/kg rapid into upper small intestine, citicholine 10mg/kg sustaining intravenous) was “no increase”.

On to `CCOC(=O)[C@H](CCCNC(=N)N)NC(=O)c1ccccc1` [BAEE, Benzoyl-L-Arg ethyl ether hydrochloride], for which, in assay [1], the Km came out at 252 µM and the Vmax came to 4.23e-05 min⁻¹ mg⁻¹.

As to `COC(=O)C1=C(C)NC(C)=C(C(=O)OCCN(C)Cc2ccccc2)C1c1cccc([N+](=O)[O-])c1` (centres unmarked) [Nicardipine], in assay [2] (setting [8]), the “Influence to local blood flow in cerebral cortex (suppression of increase)” value was “no effect”.

The record behind these values is patent EP0546533A2, “Medical use of kininogenase” (SANWA KAGAKU KENKYUSHO CO., LTD., priority 1991, dated 1993).
